Reference: PMC4007590, “Development of an oligonucleotide-based fluorescence assay for the identification of tyrosyl-DNA phosphodiesterase 1 (TDP1) inhibitors” (Analytical Biochemistry, 2014)
Read-outs that look alike come from different tables or passages of the source.

Target: T1, tyrosyl-DNA phosphodiesterase 1 (TDP1) (Homo sapiens, UniProt Q9NUW8)
T1 construct: catalytic domain of human TDP1
Test: Gyrasol fluorescence quench assay, FITC-phosphotyrosyl […]mer oligonucleotide substrate, recombinant TDP1
Assay type: biochemical

T1 sequence (Q9NUW8 149-608 limits assumed): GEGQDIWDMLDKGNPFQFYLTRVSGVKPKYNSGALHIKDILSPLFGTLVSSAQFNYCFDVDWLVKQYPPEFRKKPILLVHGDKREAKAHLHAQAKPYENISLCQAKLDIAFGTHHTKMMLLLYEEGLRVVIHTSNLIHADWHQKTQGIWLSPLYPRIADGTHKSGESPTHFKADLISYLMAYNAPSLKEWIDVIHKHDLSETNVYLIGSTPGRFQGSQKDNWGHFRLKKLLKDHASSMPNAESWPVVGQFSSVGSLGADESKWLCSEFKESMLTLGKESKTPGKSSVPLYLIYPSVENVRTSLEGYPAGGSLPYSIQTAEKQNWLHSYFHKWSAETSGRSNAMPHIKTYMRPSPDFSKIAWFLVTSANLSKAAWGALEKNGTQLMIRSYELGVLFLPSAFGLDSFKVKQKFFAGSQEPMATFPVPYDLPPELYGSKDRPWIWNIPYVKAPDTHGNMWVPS

Row | IC50 (read-out: IC50) | Structure (SMILES) | IC50
1 | 5 µM | Cc1ccc(C(=O)Nc2ccc(S(=O)(=O)O)c3cc(S(=O)(=O)O)cc(S(=O)(=O)O)c23)cc1NC(=O)c1cccc(NC(=O)Nc2cccc(C(=O)Nc3cc(C(=O)Nc4ccc(S(=O)(=O)O)c5cc(S(=O)(=O)O)cc(S(=O)(=O)O)c45)ccc3C)c2)c1 [Suramin] | –
2 | – | [O]=[V]([OH])([OH])[OH] [sodium orthovanadate] | 4 µM
